Source: patent US12180249B1, “Compositions and methods for selective labeling of secondary amines” (Emory University, priority 2021, dated 2024)

Experiment: chemical stability of the triazene-coupling product under different conditions
Type: physicochemical
Settings: incubated in water:ACN mixture for 24 h
Description: The chemical stability of the triazene-coupling product was tested under different conditions. The triazene-coupling product acts as a protecting group for secondary amines and tolerates various coupling reagents, such as N,N′-diisopropylcarbodiimide (DIC), and bases, such as N,N-diisopropylethylamine (DIEA) and pyridine (PPR), which is required for Fmoc peptide synthesis. It is also stable to a strong protein disulfide reducing agent tris(2-carboxyethyl) phosphine (TCEP) and click chemistry (CuAAC) conditions. […] This is in contrast to the stability of the azo coupling product with Tyr, which degrades quickly in the presence of sodium dithionate to generate modified tyrosine
Even though the triazene-secondary amine linkage is stable under physiologically relevant conditions, experiments were performed to determine whether the conjugate can be decoupled in a traceless manner. Indeed, exposure of the triazene modified peptide 4 MDz-AKmeF to acidic conditions (10% TFA in H2O) led to its rapid cleavage in 5 min to unchanged peptide AKmeF, as observed by HPLC and MS analysis. It is noteworthy that the acidic cleavage generated original coupling partners in an unperturbed manner. In contrast, a handful of the coupling reactions are reversible, but the products derived from decoupling are modified versions of the original reactants. […]

COC(=O)C1CCCN1N=Nc1ccc(OC)cc1 (stereo not shown) [4 MDz-Pro-OMe]
decomposition of the triazene-coupling product: no decomposition
